The results in this text go back to patent US9957236B2, “Selective inhibitors interfering with fibroblast growth factor receptor and FRS2 interaction for the prevention and treatment of cancer and other diseases” (LIMITED LIABILITY COMPANY “RUSSIAN PHARMACEUTICAL …, priority 2014, dated 2018).

Series [1] relates to SKOV3 ovarian cancer cells. The series can be described thus: Crystal Violet proliferation assay, SKOV3. Format: cell-based. As to conditions: SKOV3, low FGFR2 expression; bFGF 100 ng/ml, 7 days. The source says:
(§1) This research used additional cell lines: SKOV3 (ovarian cancer, ATCC # HTB-77), HS578T (breast cancer, ATCC # HTB-126), T47D (breast cancer, ATCC #HTB-1336), modified line of non-small cells lung cancer A549, line of metastatic melanoma of skin Mel Kor (RF Patent No. 2287578), and additional study of antiangiogenic activity—cell line SVEC-4-10 (endothelial cells, ATCC #CRL-2181).
(§2) The cells were cultivated in environment RPMI-1640 (PANECO) (SKOV3, HS578T, T47D, Mel-Kor) or DMEM (PANECO) (SVEC-4-10) containing 10% of embryonal serum cattle (FCS, HyClone), 2 mM glutamine (PANECO), antibiotics (100 IU/mL penicillin and […] streptomycin (all PANECO)) at 37° C. and 5% CO2. Cells at 70-80% monolayer were used for the experiments.
(§3) The cells were planted in low density (30 t of cells/ml) in triplets on a 96-cavity plate in an environment containing 0.1% of FCS serum. […] Growth of cells was determined by the modified “Crystal Violet mitogenic method” for 7 days after the experiment start. […] The dye was dissolved in ethanol and measured on a spectrophotometer at 540-560 nm. The curve of cell proliferative activity inhibition was built by the dependence of the percent of the cell quantity (Y axis) on concentration of inhibitor RPT835 in the cavity of the plate (X axis). […]

For a further series, the system named is HUVEC. The series can be described thus: Proliferation of endothelial cells HUVEC with FGF-2. Format: cell-based. As to conditions: Homo sapiens, FGF-2 25 ng/ml, 96 hours, read-out: Cell growth suppression, IC50. Here is the method:
Endothelial cells HUVEC were sawn in 96-cavity plates and cultivate for 24 hours. After that, the following was added to the cells: • 1) inhibitor RPT835, or • 2) inhibitor described by Formula IX in this invention, or • 3) brivanib—multi-kinase inhibitor of FGFR/VEGFR, and also to all cells—FGF-2 in a concentration of 25 ng/ml.
The cells were cultivated for 96 hours in general and then were calculated.

The test system of the next series is intracellular kinases. The series can be described thus: Intracellular kinases phosphorylation in breast cancer cells MDA MB 134. The series is classed as cell-based. The note with it: MDA MB 134 cells. The text has this: (§4) The purpose of this research was assessment of specific action of inhibitor RPT835 specified in this invention with formula II, on interaction of […] and FRS2 and assessment of influence on interaction of other types of FGFR and FRS2. For the experiment, 2 cell lines were selected: • stomach cancer KATO III, expressing FGFR2, and • breast cancer MDA MB 134, expressing FGFR1.
(§5) The research procedure was the same as in the previous examples: the cells were cultivated in presence of RPT835 followed by stimulation with FGF-2 and heparin. The other part of the cells was cultivated in presence of RPT835. Phosphorylation of FGFR1 (in breast cancer cells) and FGFR2 (in stomach cancer cells), and also FRS2a (in the both cell lines) and some intracellular kinases (in breast cancer cells) was assessed using manual and automated Western blotting.

For another series, the system named is T47D breast cancer cells. As to the kind of experiment: Crystal Violet proliferation assay, T47D. The series is classed as cell-based. The note with it: hardly expressed FGFR2, bFGF 100 ng/ml, 7 days.
Text: as §1, §2, §3

Series [2] relates to modified line of non-small cells lung cancer A549. As to the kind of experiment: Crystal Violet proliferation assay, modified A549. Format: cell-based. The note with it: Homo sapiens; modified A549 with pronounced expression of FGFR2.
Text: as §1, §2, §3

Series [3] deals with triple negative breast cancer HS578T. As to the kind of experiment: Tumor growth of HS578T xenograft in nude mice. As to conditions: for Slowdown of tumor growth: 30 mg/kg daily; for average size of tumor: 30 mg/kg daily through a stomach tube. The series is classed as in vivo. The method, then: Females of immunodeficient mice (nude) at the age of 8 weeks were administered 2×10^6 tumor cells of human cell lines with various expression of FGFR2: • cell line of triple-negative breast cancer SUM52PE strongly expressing FGFR2 (purchased from Asterand, Inc. (Detroit, Mich.) • cell line of triple negative breast cancer HS578T weakly expressing FGFR2 (purchased from ATCC (CRL-125) • cell line of non-small cell lung cancer NCI-H226 not expressing FGFR2 (purchased from ATCC (CRL-5826)
After the tumor growth got established (1 mm^3), the mice were divided into control and treatment groups in accordance with the tumor type.
Control group 2 (N=10): HS578T, administration of water through a stomach tube, daily.
Treatment group 2 (N=10): HS578T, administration of inhibitor RPT835 through a stomach tube in a dose of 30 mg/kg, daily.
Size of tumor and weight of animals were measured every 3 day. The mice underwent euthanasia when the tumor reached the size of 2,000 mm^3 or on the 60 day of the experiment.

Series [4] is described as follows: Toxicity assessment in the in vivo studies of Example 13. As to conditions: nude mice, 30 mg/kg daily through a stomach tube. Here is the method:
Toxicity of inhibitor RPT835 was assessed in in vivo studies described in Example 13. According to the standard procedure, all undesirable events were assessed, as well as loss of weight by animals, when the inhibitor is used compared to the control group.

For the next series, the target named is T1, FGFR1 (Homo sapiens, UniProt P11362).
T1 construct: endogenous in cells; host or cells: HUVEC, Caki-1, KATO III
The series can be described thus: FGFR1 phosphorylation in breast cancer cells MDA MB 134. The series is classed as cell-based. The note with it: MDA MB 134 cells.
Text: as §4, §5

T1 sequence (P11362 22-822): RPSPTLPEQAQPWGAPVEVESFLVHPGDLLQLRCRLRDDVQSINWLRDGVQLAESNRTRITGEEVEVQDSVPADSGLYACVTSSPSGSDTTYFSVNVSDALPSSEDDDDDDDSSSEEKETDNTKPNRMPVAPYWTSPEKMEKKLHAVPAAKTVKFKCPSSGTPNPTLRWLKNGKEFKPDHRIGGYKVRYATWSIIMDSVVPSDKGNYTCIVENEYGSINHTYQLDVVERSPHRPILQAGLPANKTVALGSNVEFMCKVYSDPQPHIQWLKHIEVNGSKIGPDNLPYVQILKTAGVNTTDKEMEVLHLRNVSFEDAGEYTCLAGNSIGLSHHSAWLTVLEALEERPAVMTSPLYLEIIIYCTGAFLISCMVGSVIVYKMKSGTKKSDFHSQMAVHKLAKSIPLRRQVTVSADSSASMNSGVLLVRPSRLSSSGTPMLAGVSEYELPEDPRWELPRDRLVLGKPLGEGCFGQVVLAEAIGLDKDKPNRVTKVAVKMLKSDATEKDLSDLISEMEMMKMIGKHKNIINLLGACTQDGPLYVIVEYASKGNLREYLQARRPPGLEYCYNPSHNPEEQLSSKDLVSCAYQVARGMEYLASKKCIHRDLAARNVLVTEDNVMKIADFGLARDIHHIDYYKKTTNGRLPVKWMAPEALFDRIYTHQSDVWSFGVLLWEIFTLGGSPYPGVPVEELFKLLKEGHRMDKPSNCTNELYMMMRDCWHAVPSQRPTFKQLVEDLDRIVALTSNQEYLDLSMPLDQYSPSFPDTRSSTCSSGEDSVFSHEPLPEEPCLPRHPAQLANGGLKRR

Take `Cc1cc([N+](=O)[O-])c(NS(=O)(=O)c2cccc(C(=O)O)c2)cc1-c1cccnc1` [RPT835, 3-(N-(4-methyl-2-nitro-5-(pyridin-3-yl)phenyl)sulfamoyl)benzoic acid]: the “inhibition of proliferative activity” value in series [1] is “moderate effect”; in the series on T47D breast cancer cells, “did not block”. Also, the IC50 (in general, the concentration that gives 50% inhibition) in the series with HUVEC was determined as 11 nM; in series [2], 10 nM. The “phosphorylation of intracellular kinases” value with intracellular kinases was “did not have influence”. The results for the “Slowdown of tumor growth” value in series [3] (31st day) and in series [3] (40th day) were 33.2% and 30.6%, respectively. The “average size of tumor” value was 703±89.1 mm3 in series [3] (31st day) and 1,104±162.2 mm3 in series [3] (40th day, P=0.01). Further, the “weight loss and undesirable side effects of the therapy” value in series [4] was “Neither weight loss, nor any undesirable side effects”. The “phosphorylation of FGFR1” value on FGFR1 is listed as “did not have influence”.
